Values joined by “and” are separate entries in the source; they are usually repeats but may differ in a detail not shown here. Equal entries are not always repeated. Numbers after ± are expanded uncertainties.
Settings: Liquid, Transpiration method

COCCOCCOCCOc1ccccc1Br [1-bromo-2-(2-(2-(2-methoxyethoxy)ethoxy)ethoxy)benzene]
vapor or sublimation pressure (333.2 K): 6.1e-05 ± 3e-06 kPa
vapor or sublimation pressure (337.3 K): 8.8e-05 ± 5e-06 kPa
vapor or sublimation pressure (339.3 K): 0.000111 ± 6e-06 kPa
vapor or sublimation pressure (341.3 K): 0.000132 ± 7e-06 kPa
vapor or sublimation pressure (343.4 K): 0.000158 ± 8e-06 kPa
vapor or sublimation pressure (345.5 K): 0.000188 ± 1e-05 kPa
vapor or sublimation pressure (347.5 K): 0.000218 ± 1.2e-05 kPa
vapor or sublimation pressure (349.7 K): 0.000272 ± 1.5e-05 kPa
vapor or sublimation pressure (351.7 K): 0.000329 ± 1.7e-05 kPa
vapor or sublimation pressure (353.6 K): 0.000382 ± 2e-05 kPa
vapor or sublimation pressure (355.7 K): 0.000446 ± 2.4e-05 kPa
vapor or sublimation pressure (357.8 K): 0.000555 ± 3e-05 kPa
vapor or sublimation pressure (359.8 K): 0.000649 ± 3.4e-05 kPa
vapor or sublimation pressure (360.6 K): 0.000704 ± 3.8e-05 kPa
vapor or sublimation pressure (362 K): 0.000796 ± 4.1e-05 kPa
vapor or sublimation pressure (363 K): 0.000826 ± 4.4e-05 kPa
vapor or sublimation pressure (365 K): 0.000993 ± 5.3e-05 kPa
vapor or sublimation pressure (367.9 K): 0.001244 ± 6.5e-05 kPa
vapor or sublimation pressure (369.9 K): 0.001446 ± 7.5e-05 kPa

COCCOCCOc1ccccc1Br [1-bromo-2-(2-(2-methoxyethoxy)ethoxy)benzene]
vapor or sublimation pressure (310.4 K): 9e-05 ± 1e-05 kPa
vapor or sublimation pressure (313.2 K): 0.00012 ± 1e-05 kPa
vapor or sublimation pressure (317.4 K): 0.00016 ± 1e-05 kPa
vapor or sublimation pressure (318.6 K): 0.00019 ± 1e-05 kPa
vapor or sublimation pressure (320.3 K): 0.00021 ± 1e-05 kPa
vapor or sublimation pressure (322.6 K): 0.00026 ± 1e-05 kPa
vapor or sublimation pressure (324.3 K): 0.0003 ± 2e-05 kPa
vapor or sublimation pressure (325.4 K): 0.00036 ± 2e-05 kPa
vapor or sublimation pressure (327.6 K): 0.00043 ± 2e-05 kPa
vapor or sublimation pressure (327.7 K): 0.00043 ± 2e-05 kPa
vapor or sublimation pressure (328.3 K): 0.00047 ± 2e-05 kPa and 0.00045 ± 2e-05 kPa
vapor or sublimation pressure (329 K): 0.00045 ± 2e-05 kPa
vapor or sublimation pressure (332.4 K): 0.00063 ± 3e-05 kPa
vapor or sublimation pressure (332.5 K): 0.00062 ± 3e-05 kPa
vapor or sublimation pressure (332.7 K): 0.00063 ± 3e-05 kPa
vapor or sublimation pressure (334.5 K): 0.00076 ± 4e-05 kPa
vapor or sublimation pressure (335.4 K): 0.00081 ± 4e-05 kPa
vapor or sublimation pressure (337.9 K): 0.00096 ± 5e-05 kPa
vapor or sublimation pressure (339.1 K): 0.00113 ± 6e-05 kPa
vapor or sublimation pressure (342 K): 0.00135 ± 7e-05 kPa
vapor or sublimation pressure (343.5 K): 0.00153 ± 8e-05 kPa
vapor or sublimation pressure (345 K): 0.00167 ± 9e-05 kPa
vapor or sublimation pressure (346.5 K): 0.00205 ± 0.00011 kPa
vapor or sublimation pressure (347.6 K): 0.00219 ± 0.00011 kPa
vapor or sublimation pressure (348 K): 0.0022 ± 0.00012 kPa
vapor or sublimation pressure (349.5 K): 0.00252 ± 0.00013 kPa
vapor or sublimation pressure (350.1 K): 0.00253 ± 0.00014 kPa
vapor or sublimation pressure (350.6 K): 0.0028 ± 0.00018 kPa
vapor or sublimation pressure (353 K): 0.00325 ± 0.00017 kPa
vapor or sublimation pressure (355.1 K): 0.00383 ± 0.0002 kPa
vapor or sublimation pressure (356 K): 0.0041 ± 0.00022 kPa
vapor or sublimation pressure (359.2 K): 0.0052 ± 0.00027 kPa
vapor or sublimation pressure (360.3 K): 0.00566 ± 0.0003 kPa
vapor or sublimation pressure (361.1 K): 0.00611 ± 0.00032 kPa
vapor or sublimation pressure (363.3 K): 0.007 ± 0.00037 kPa
vapor or sublimation pressure (365.2 K): 0.00835 ± 0.00044 kPa
vapor or sublimation pressure (368.4 K): 0.01027 ± 0.00053 kPa and 0.01025 ± 0.00053 kPa
vapor or sublimation pressure (370.8 K): 0.01177 ± 0.00061 kPa
vapor or sublimation pressure (373.5 K): 0.01407 ± 0.00072 kPa

COCCOc1ccccc1Br [1-bromo-2-(2-methoxyethoxy)benzene]
vapor or sublimation pressure (302.4 K): 0.0011 ± 6e-05 kPa
vapor or sublimation pressure (307.4 K): 0.00174 ± 9e-05 kPa
vapor or sublimation pressure (312.4 K): 0.00268 ± 0.00014 kPa
vapor or sublimation pressure (315 K): 0.00321 ± 0.00017 kPa
vapor or sublimation pressure (317.5 K): 0.00391 ± 0.0002 kPa
vapor or sublimation pressure (319.5 K): 0.00453 ± 0.00024 kPa and 0.00475 ± 0.00025 kPa
vapor or sublimation pressure (322.6 K): 0.0062 ± 0.00032 kPa
vapor or sublimation pressure (324.6 K): 0.00691 ± 0.00036 kPa
vapor or sublimation pressure (327.6 K): 0.00867 ± 0.00046 kPa
vapor or sublimation pressure (332.7 K): 0.01255 ± 0.00066 kPa
vapor or sublimation pressure (337.8 K): 0.01854 ± 0.00096 kPa
vapor or sublimation pressure (343 K): 0.02628 ± 0.0014 kPa
vapor or sublimation pressure (348.1 K): 0.03518 ± 0.0018 kPa
vapor or sublimation pressure (353.2 K): 0.04763 ± 0.0024 kPa
vapor or sublimation pressure (356.3 K): 0.05583 ± 0.0029 kPa
vapor or sublimation pressure (358.2 K): 0.06719 ± 0.0035 kPa
vapor or sublimation pressure (360.7 K): 0.07401 ± 0.0038 kPa
vapor or sublimation pressure (361.8 K): 0.07914 ± 0.004 kPa
vapor or sublimation pressure (363.3 K): 0.08516 ± 0.0044 kPa
vapor or sublimation pressure (366.8 K): 0.1095 ± 0.0056 kPa
vapor or sublimation pressure (368.4 K): 0.1199 ± 0.0061 kPa

Reference: the NIST ThermoML archive (doi:10.1016/j.fluid.2006.09.001)
